From the supplement of paper PMC13380429

Experiments:
Conditions in all cases: 72 h
U2OS [1] = assay: relative viability EC50 (midpoint between 100% and the lowest measured viability); higher = less toxic
Calu-3 [2] = assay: as above
Caco-2 [3] = assay: as above
Vero E6 [4] = assay: as above
HepG2 [5] = assay: as above
U2OS [6] = assay: drug sensitivity score (DSS) for viability; higher = more toxic; extreme values may be limits of the assay
Calu-3 [7] = assay: as above
Caco-2 [8] = assay: as above
Vero E6 [9] = assay: as above
HepG2 [10] = assay: as above
U2OS [11] = assay: cell viability relative to DMSO; higher = less toxic
Calu-3 [12] = assay: as above
Caco-2 [13] = assay: as above
Vero E6 [14] = assay: as above
HepG2 [15] = assay: as above

Structure (SMILES)	relative viability EC50 (U2OS [1]) [µM]	relative viability EC50 (Calu-3 [2]) [µM]	relative viability EC50 (Caco-2 [3]) [µM]	relative viability EC50 (Vero E6 [4]) [µM]	relative viability EC50 (HepG2 [5]) [µM]	drug sensitivity score (U2OS [6])	drug sensitivity score (Calu-3 [7])	drug sensitivity score (Caco-2 [8])	drug sensitivity score (Vero E6 [9])	drug sensitivity score (HepG2 [10])	cell viability (U2OS [11]; 1 nM) [%]	cell viability (U2OS [11]; 10 nM) [%]	cell viability (U2OS [11]; 100 nM) [%]	cell viability (U2OS [11]; 1000 nM) [%]	cell viability (U2OS [11]; 10000 nM) [%]	cell viability (Calu-3 [12]; 1 nM) [%]	cell viability (Calu-3 [12]; 10 nM) [%]	cell viability (Calu-3 [12]; 100 nM) [%]	cell viability (Calu-3 [12]; 1000 nM) [%]	cell viability (Calu-3 [12]; 10000 nM) [%]	cell viability (Caco-2 [13]; 1 nM) [%]	cell viability (Caco-2 [13]; 10 nM) [%]	cell viability (Caco-2 [13]; 100 nM) [%]	cell viability (Caco-2 [13]; 1000 nM) [%]	cell viability (Caco-2 [13]; 10000 nM) [%]	cell viability (Vero E6 [14]; 1 nM) [%]	cell viability (Vero E6 [14]; 10 nM) [%]	cell viability (Vero E6 [14]; 100 nM) [%]	cell viability (Vero E6 [14]; 1000 nM) [%]	cell viability (Vero E6 [14]; 10000 nM) [%]	cell viability (HepG2 [15]; 1 nM) [%]	cell viability (HepG2 [15]; 10 nM) [%]	cell viability (HepG2 [15]; 100 nM) [%]	cell viability (HepG2 [15]; 1000 nM) [%]	cell viability (HepG2 [15]; 10000 nM) [%]
Nc1ccc(S(=O)(=O)Nc2ccc(Cl)nn2)cc1 [sulfachlorpyridazine]	> 10	> 10	> 10	> 10	> 10	0	0	0	0	0	98.8	93	100	102	103	109	91	98.5	104	109	99.6	93.4	94.8	106	106	97.8	95.3	101	97.1	103	93	105	105	108	107
Cc1c(C)c2c(c(C)c1O)CCC(C)(COc1ccc(CC3SC(=O)NC3=O)cc1)O2 (stereo not given) [troglitazone]	> 10	> 10	> 10	> 10	> 10	0	0	0	0	0	95.2	100	95	101	101	112	98.2	110	98.4	108	89	116	106	93.4	106	101	92.2	101	95.9	101	87.7	103	104	90.6	98.5
CCOC(=O)[C@H](CCc1ccccc1)N[C@@H](C)C(=O)N1Cc2cc(OC)c(OC)cc2C[C@H]1C(=O)O [moexipril]	> 10	> 10	> 10	> 10	> 10	0	0	0	0	0	96	102	92.8	100	95.7	97	97	107	111	104	106	96	101	89.3	98.2	96.2	102	96.6	96.9	102	95.8	98.6	96	95.5	92.2
C[C@@H]1CN(Cc2ncccn2)C[C@H]1c1nc2c(cnn2C2CCOCC2)c(=O)[nH]1	> 10	> 10	> 10	> 10	> 10	0	0	0	0	0	98.2	102	102	103	99.9	98.5	100	105	111	93.7	94.4	92.4	96	94.7	107	93.6	97.7	93.7	96	103	99.2	94	100	96.5	107
O=C(O)c1cccnc1C(=O)O [quinolinic-acid]	> 10	> 10	> 10	> 10	> 10	0	0	0	0	0	98.2	103	98.6	102	97.7	91.5	105	97.1	100	101	103	110	96.8	103	90.3	108	97.4	108	99.2	102	105	99.5	97.6	102	97.8
c1ccc2c(c1)CN1CCCC1=N2 [desoxypeganine]	> 10	> 10	> 10	> 10	> 10	0	0	0	0	0	98.7	101	93	94.5	99.3	95.1	111	99.6	89.2	107	97.6	113	105	94.7	97.9	98.4	96.5	105	98	95.2	89.7	75.1	91.6	91.1	96.8
NC(=O)c1cnccn1 [pyrazinamide]	> 10	> 10	> 10	> 10	> 10	0	0	0	0	0	93.7	101	98	104	96	99.5	100	94.2	104	93	104	120	92.8	107	89.8	105	93.5	106	95.3	104	103	103	105	97.9	103
O=C1c2ccccc2C(Cc2ccncc2)(Cc2ccncc2)c2ccccc21 [XE-991]	> 10	> 10	> 10	> 10	> 10	0	0	0	0	0	103	98.8	100	96.5	100	108	87.7	108	91.2	99.8	100	94.1	97.5	93.8	89.2	94.5	101	98.8	93.3	91.1	97.8	97.6	97.6	96.3	89.1
CC(=O)N[C@@H](CC(=O)O)C(=O)N[C@@H](CCC(=O)O)C(=O)O [spaglumic-acid]	> 10	> 10	> 10	> 10	> 10	0	0	0	0	0	101	96.2	104	102	102	89.7	93.3	100	97.2	105	105	98.1	101	94.6	101	93.6	105	101	102	100	101	108	91.5	114	95.5
CCCc1nc(C)c2c(=O)nc(-c3cc(S(=O)(=O)N4CCN(CC)CC4)ccc3OCC)[nH]n12 [vardenafil]	> 10	> 10	> 10	> 10	> 10	0	0	0	0	0	102	98.1	103	99.1	99.5	105	88.8	99.5	96.5	101	95.7	93	101	104	99.9	100	107	102	106	99.6	98.7	100	96.4	101	89.8
CC1(CN)Cc2ccccc2C1 [ORG-9768]	> 10	> 10	> 10	> 10	> 10	0	0	0	0	0	99.5	98	101	102	102	109	105	95.4	102	96.9	93	87.1	101	93.9	110	91.2	96.8	94	98.5	109	98	109	96.3	112	102
